The results in this text go back to patent US5210193A, “Piperazine derivatives” (American Cyanamid Company, priority 1990, dated 1993).

Broadly, the MIC is the lowest concentration that inhibits growth of the organism.

≈ marks a conversion by molar mass, not a printed value. Where two headings read alike, the source gives them in different places.

Experiment in all cases: in vitro antibacterial MIC, agar plate dilution
What all share (type): cell-based

In experiment [1] the test system is Escherichia coli ATCC 25922. As to conditions: 35° C. On the procedure: (§1) The in vitro antimicrobial spectrum of the compounds of ths invention were determined by the agar plate dilution method with Mueller-Hinton agar and an inoculum of each test organism of approximately 10^4 colony forming units delivered by the Steers replicating device. The minimal inhibitory concentration (MIC) in mcg/ml is defined as the lowest concentration of test compound that inhibited visible growth after 18 hours incubation at 35° C. Results are given in Table I, with the test compounds identified by the number of their hereinafter described examples.

In experiment [2] the test system is Escherichia coli CMC 84-11. As to conditions: 35° C. The procedure:
as §1

Another experiment has as its system Escherichia coli LL 311. As to conditions: Escherichia coli, LL311, 18 h, 35° C., read-out: MIC. The procedure:
as §1

Experiment [3] relates to Morganella morganii CMC 84-37. Particulars: Morganella morganii, CMC8437, 18 h, 35° C., read-out: MIC. On the procedure:
as §1

The test system of experiment [4] is Proteus rettgeri CMC 84-41. Particulars: Providencia rettgeri, CMC8441, 18 h, 35° C., read-out: MIC. The procedure:
as §1

Experiment [5] concerns Pseudomonas aeruginosa LL-1244. As to conditions: Pseudomonas aeruginosa, LL1244, 18 h, 35° C., read-out: MIC. The procedure: as §1
In experiment [6] the test system is Pseudomonas aeruginosa VGH 84-4. As to conditions: Pseudomonas aeruginosa, VGH844, 18 h, 35° C., read-out: MIC. The procedure: as §1
For experiment [7], the system named is Serratia marcescens K 84-18. Particulars: Serratia marcescens, K8418, 18 h, 35° C., read-out: MIC. The procedure:
as §1

Experiment [8] has as its system Serratia marcescens VGH 84-30. Particulars: Serratia marcescens, VGH8430, 18 h, 35° C., read-out: MIC. The procedure: as §1
In experiment [9] the test system is Staphylococcus aureus ATTC 29213. As to conditions: Staphylococcus aureus, ATTC29213, 18 h, 35° C., read-out: MIC. On the procedure: as §1
Experiment [10] concerns Staphylococcus aureus Smith. Particulars: 35° C. The procedure: as §1
In experiment [11] the test system is Staphylococcus aureus VGH 84-45. As to conditions: Staphylococcus aureus, VGH8445, 18 h, 35° C., read-out: MIC. The procedure: as §1
For experiment [12], the system named is Streptococcus faecalis UCI 85-19. As to conditions: Enterococcus faecalis, UCI8519, 18 h, 35° C., read-out: MIC. The procedure: as §1
Experiment [13] deals with Streptococcus faecalis VGH 84-65. As to conditions: Enterococcus faecalis, VGH8465, 18 h, 35° C., read-out: MIC. On the procedure:
as §1

Where [14] appears, read: Escherichia coli, ATCC25922, 18 h, read-out: MIC.
The mark [15] stands for this setting: Escherichia coli, CMC8411, 18 h, read-out: MIC.
Where [16] appears, read: Staphylococcus aureus, 18 h, read-out: MIC.

For `O=C(O)c1cn(C2CC2)c2cc(N3CCNC(COc4ccccc4)C3)c(F)cc2c1=O` (stereo not shown) [Example 83, 1-Cyclopropyl-6-fluoro-1,4-dihydro-4-oxo-7-[3-(phenoxymethyl)-1-piperazinyl]-3-quinolinecarboxylic acid], the MIC came to 0.12 µg/mL (≈ 0.274 µM) in experiment [1] (setting [14]); 0.06 µg/mL (≈ 0.137 µM) in experiment [2] (setting [15]); 0.12 µg/mL (≈ 0.274 µM) in the experiment with Escherichia coli LL 311; 0.12 µg/mL (≈ 0.274 µM) in [3]; 0.25 µg/mL (≈ 0.571 µM) in experiment [4]; 32 µg/mL (≈ 73.1 µM) in [5]. Besides, the MIC in [6] is 4 µg/mL (≈ 9.14 µM); in experiment [7] it was 0.5 µg/mL (≈ 1.14 µM); in [8] it was 4 µg/mL (≈ 9.14 µM); in experiment [9] it was 0.25 µg/mL (≈ 0.571 µM); in experiment [10] (setting [16]) it was 0.06 µg/mL (≈ 0.137 µM); in [11], 0.03 µg/mL (≈ 0.0686 µM). The minimal inhibitory concentration (MIC) in experiment [12] and in experiment [13] was 2 µg/mL (≈ 4.57 µM) throughout.
Regarding `O=C(O)c1cn(-c2ccc(F)cc2)c2cc(N3CCNC(COc4ccccc4)C3)c(F)cc2c1=O` (stereo not shown) [Example 84, 1-(4-Fluorophenvl)-6-fluoro-1,4-dihydro-4-oxo-7-[3-(phenoxymethyl)-1-piperazinyl]-3-quinolinecarboxylic acid], the minimal inhibitory concentration (MIC) is 1 µg/mL (≈ 2.03 µM) in experiment [1] (setting [14]); 1 µg/mL (≈ 2.03 µM) in [2] (setting [15]); 1 µg/mL (≈ 2.03 µM) in the experiment on Escherichia coli LL 311; 2 µg/mL (≈ 4.07 µM) in experiment [3]; 1 µg/mL (≈ 2.03 µM) in experiment [4]; more than 128 µg/mL in [5]. Moreover, the MIC is 32 µg/mL (≈ 65.1 µM) in experiment [6]; 32 µg/mL (≈ 65.1 µM) in [7]; more than 128 µg/mL in experiment [8]; 1 µg/mL (≈ 2.03 µM) in [9]; 0.25 µg/mL (≈ 0.509 µM) in [10] (setting [16]); 0.25 µg/mL (≈ 0.509 µM) in experiment [11]. The minimal inhibitory concentration (MIC) in experiment [12] and in experiment [13] was 32 µg/mL (≈ 65.1 µM) in each case.
With `CCn1cc(C(=O)O)c(=O)c2cc(F)c(N3CCN(C)C(CF)C3)c(F)c21` (single isomer, unassigned) [Example 114, (-1-1-Ethyl-6,8-difluoro-7-[3-fluoromethyl)-4-methyl-1-piperazinyl]-1,4-dihydro-4-oxo-3-quinolinecarboxylic acid], the MIC in experiment [1] (18 hours) turned out to be 0.12 µg/mL (≈ 0.313 µM); in experiment [2] (18 hours), 0.12 µg/mL (≈ 0.313 µM); with Escherichia coli LL 311 it was 0.25 µg/mL (≈ 0.652 µM); in experiment [3] it was 1 µg/mL (≈ 2.61 µM); in experiment [4] it was 2 µg/mL (≈ 5.22 µM); in experiment [5], 16 µg/mL (≈ 41.7 µM). In addition, the MIC is 8 µg/mL (≈ 20.9 µM) in [6]; 1 µg/mL (≈ 2.61 µM) in experiment [7]; 16 µg/mL (≈ 41.7 µM) in experiment [8]; 8 µg/mL (≈ 20.9 µM) in [9]; 0.12 µg/mL (≈ 0.313 µM) in experiment [10] (18 hours); 0.25 µg/mL (≈ 0.652 µM) in [11]. The minimal inhibitory concentration (MIC) in [12] and in experiment [13] was 4 µg/mL (≈ 10.4 µM) throughout.
Turning to `CCn1cc(C(=O)O)c(=O)c2c(F)c(F)c(N3CCNC(c4ccsc4)C3)c(F)c21` (stereo not shown) [Example 90, 1-Ethyl-5,6,8-trifluoro-1,4-dihydro-4-oxo-7-[3-(3-thienyl)-1-piperazinyl]-3-quinolinecarboxylic acid], the MIC was determined as 0.25 µg/mL (≈ 0.572 µM) in experiment [1] (setting [14]); 0.25 µg/mL (≈ 0.572 µM) in [2] (setting [15]); 0.25 µg/mL (≈ 0.572 µM) in the experiment with Escherichia coli LL 311; 0.25 µg/mL (≈ 0.572 µM) in experiment [3]; 1 µg/mL (≈ 2.29 µM) in experiment [4]; 32 µg/mL (≈ 73.2 µM) in experiment [5]. Besides, the MIC in experiment [6] stood at 16 µg/mL (≈ 36.6 µM); in experiment [7] it was 1 µg/mL (≈ 2.29 µM); in [8], 16 µg/mL (≈ 36.6 µM); in experiment [9] it was 1 µg/mL (≈ 2.29 µM); in experiment [10] (setting [16]), 0.25 µg/mL (≈ 0.572 µM); in experiment [11] it was 0.25 µg/mL (≈ 0.572 µM). For the same compound, the MIC in experiment [12] and in [13] was 8 µg/mL (≈ 18.3 µM) throughout.
Regarding `COCC1CN(c2cc3c(cc2F)c(=O)c(C(=O)O)cn3-c2ccc(F)cc2)CCN1` (stereo not shown) [Example 82, 6-Fluoro-1-(4-fluorophenyl)-1,4-dihydro-7-(3-(methoxy-methyl)-1-piperazinyl]-4-oxo-3-cuinolinecarboxylic acid], the minimum inhibitory concentration (MIC) in experiment [1] (setting [14]) stood at 0.25 µg/mL (≈ 0.582 µM); in experiment [2] (setting [15]) it was 0.12 µg/mL (≈ 0.279 µM); in the experiment with Escherichia coli LL 311, 0.25 µg/mL (≈ 0.582 µM); in experiment [3], 1 µg/mL (≈ 2.33 µM); in experiment [4] it was 1 µg/mL (≈ 2.33 µM); in experiment [5], 32 µg/mL (≈ 74.5 µM). For the same compound, the minimum inhibitory concentration (MIC) in experiment [6] was 8 µg/mL (≈ 18.6 µM); in [7] it was 2 µg/mL (≈ 4.66 µM); in experiment [8] it was 16 µg/mL (≈ 37.3 µM); in experiment [9], 0.5 µg/mL (≈ 1.16 µM); in experiment [10] (setting [16]) it was 0.12 µg/mL (≈ 0.279 µM); in [11] it was 0.12 µg/mL (≈ 0.279 µM). For the same compound, the MIC in [12] and in experiment [13] was 8 µg/mL (≈ 18.6 µM) in each case.
